Data: ChEMBL document CHEMBL4483862, “Open-source discovery of chemical leads for next-generation chemoprotective antimalarials” (2018)

System: Plasmodium berghei
Assay: Luciferase/luciferin-expressing antifolate-resistant parasites were used to infect a culture of HepG2 cells that were pre-incubated with compounds. Infected hepatocytes emit light due to the luciferase reaction. Assay results are presented as the percent inhibition of light emission compared to control. […]
Format: functional
Conditions: sporozoite; for IC90: read-out: LUCIFERASE INFECTION ASSAY - IC90

In the case of `Nc1cccc2c1C(=O)N(C(=O)/C=C/c1cccc(F)c1)C2=O`, the IC50 (HEPG2TOX_HILL_SLOPE 0.728, HEPG2TOX_R_SQUARED 0.696, PBLUC_HILL_SLOPE 1.8, PBLUC_R_SQUARED 0.344, read-out: LUCIFERASE INFECTION ASSAY - IC50) is reported as 8070 nM and the IC90 is reported as over 10000 nM.
`CC(C)c1ccc(/C=C/C2=NNC(=O)CC2)cc1` gave an IC50 (HEPG2TOX_HILL_SLOPE 0.687, HEPG2TOX_R_SQUARED 0.88, PBLUC_HILL_SLOPE 0.307, PBLUC_R_SQUARED 0.14, read-out: LUCIFERASE INFECTION ASSAY - IC50) of over 13600 nM and an IC90 of over 13600 nM.
`COc1ccc(/C=C/C2=NNC(=O)CC2)cc1` was tested, and the IC50 (HEPG2TOX_HILL_SLOPE 0.708, HEPG2TOX_R_SQUARED 0.9, read-out: LUCIFERASE INFECTION ASSAY - IC50) was over 14300 nM and the IC90 was over 14300 nM.
For `COc1ccc(Nc2cc(C)nc(-n3nc(C)cc3C)n2)cc1`, the IC50 (HEPG2TOX_HILL_SLOPE 0.695, HEPG2TOX_R_SQUARED 0.68, PBLUC_HILL_SLOPE 2.57, PBLUC_R_SQUARED 0.661, read-out: LUCIFERASE INFECTION ASSAY - IC50) was 1780 nM and the IC90 was 4190 nM.
In the case of `Cc1onc(-c2c(Cl)cccc2Cl)c1C(=O)N1CCCc2ccccc21`, the IC50 (HEPG2TOX_HILL_SLOPE 0.734, HEPG2TOX_R_SQUARED 0.611, PBLUC_HILL_SLOPE 1.71, PBLUC_R_SQUARED 0.613, read-out: LUCIFERASE INFECTION ASSAY - IC50) is reported as 3640 nM and the IC90 is reported as over 8520 nM.
`Oc1cc(-c2ccccc2)nc2ccccc12` gave an IC50 (HEPG2TOX_HILL_SLOPE 0.704, HEPG2TOX_R_SQUARED 0.901, PBLUC_HILL_SLOPE 3.71, PBLUC_R_SQUARED 0.852, read-out: LUCIFERASE INFECTION ASSAY - IC50) of 170 nM and an IC90 of 307 nM.
`c1cncc(-c2cnc3ccc(-c4ccoc4)nn23)c1` showed an IC50 (HEPG2TOX_HILL_SLOPE 0.706, HEPG2TOX_R_SQUARED 0.847, PBLUC_HILL_SLOPE 1.15, PBLUC_R_SQUARED 0.722, read-out: LUCIFERASE INFECTION ASSAY - IC50) of 1630 nM and an IC90 of over 10000 nM.
Work on `Cc1sc2ncnc(NC(C)c3ccc(-n4ccnc4)cc3)c2c1C` (centres undefined) yielded an IC50 (HEPG2TOX_HILL_SLOPE 0.71, HEPG2TOX_R_SQUARED 0.913, PBLUC_HILL_SLOPE 1.13, PBLUC_R_SQUARED 0.519, read-out: LUCIFERASE INFECTION ASSAY - IC50) of 2600 nM and an IC90 of over 10000 nM.
Compound `FC(F)(F)Oc1cccc(-c2nnc3ccc(-c4cccc5ncccc45)cn23)c1` has an IC50 (HEPG2TOX_HILL_SLOPE 0.706, HEPG2TOX_R_SQUARED 0.938, PBLUC_HILL_SLOPE 2.17, PBLUC_R_SQUARED 0.421, read-out: LUCIFERASE INFECTION ASSAY - IC50) of 928 nM and an IC90 of 2550 nM.
`CC1(C(=O)Nc2ccncc2)CCN1Cc1ccc2ccccc2c1` (centres undefined) showed an IC50 (HEPG2TOX_HILL_SLOPE 0.704, HEPG2TOX_R_SQUARED 0.958, PBLUC_HILL_SLOPE 1.6, PBLUC_R_SQUARED 0.488, read-out: LUCIFERASE INFECTION ASSAY - IC50) of 1800 nM and an IC90 of 7130 nM.
Compound `CC(=O)Nc1cccc(-c2ccc3ncc(-c4ccccc4)n3n2)c1` has an IC50 (HEPG2TOX_HILL_SLOPE 0.716, HEPG2TOX_R_SQUARED 0.978, PBLUC_HILL_SLOPE 1, PBLUC_R_SQUARED 0.535, read-out: LUCIFERASE INFECTION ASSAY - IC50) of 3870 nM and an IC90 of over 10000 nM.
`OCc1ccccc1-c1cn2c(-c3ccc4ncccc4c3)cnc2cn1` gave an IC50 (HEPG2TOX_HILL_SLOPE 0.72, HEPG2TOX_R_SQUARED 0.902, PBLUC_HILL_SLOPE 1.49, PBLUC_R_SQUARED 0.863, read-out: LUCIFERASE INFECTION ASSAY - IC50) of 107 nM and an IC90 of 468 nM.
In the case of `NC(=O)c1cccc(-c2ccc3ncc(-c4cccs4)n3n2)c1`, the IC50 (HEPG2TOX_HILL_SLOPE 0.701, HEPG2TOX_R_SQUARED 0.861, PBLUC_HILL_SLOPE 2.21, PBLUC_R_SQUARED 0.712, read-out: LUCIFERASE INFECTION ASSAY - IC50) is reported as 4090 nM and the IC90 is reported as over 10000 nM.
In the case of `COc1cncc(-c2cnc3c(Nc4cc(OC)c(OC)c(OC)c4)nccn23)c1`, the IC50 (HEPG2TOX_HILL_SLOPE 0.708, HEPG2TOX_R_SQUARED 0.654, PBLUC_HILL_SLOPE 2.45, PBLUC_R_SQUARED 0.956, read-out: LUCIFERASE INFECTION ASSAY - IC50) is reported as 121 nM and the IC90 is reported as 297 nM.
With `O=C(OCc1ncc(-c2ccccc2)o1)c1cc([N+](=O)[O-])ccc1N1CCOCC1` the IC50 (HEPG2TOX_HILL_SLOPE 0.712, HEPG2TOX_R_SQUARED 0.947, PBLUC_HILL_SLOPE 1.1, PBLUC_R_SQUARED 0.629, read-out: LUCIFERASE INFECTION ASSAY - IC50) was 465 nM and the IC90 was 3400 nM.
`CC(C)c1ccc2cc(C(=O)Nc3ccc4c(c3)NC(=O)CO4)[nH]c2c1` gave an IC50 (HEPG2TOX_HILL_SLOPE 0.683, HEPG2TOX_R_SQUARED 0.922, PBLUC_HILL_SLOPE 2.26, PBLUC_R_SQUARED 0.558, read-out: LUCIFERASE INFECTION ASSAY - IC50) of 1130 nM and an IC90 of 2970 nM.
Work on `O=C(CCc1c(-c2ccc(F)cc2)[nH]c2ccc(F)cc12)NCCN1CCOCC1` yielded an IC50 (HEPG2TOX_HILL_SLOPE 0.681, HEPG2TOX_R_SQUARED 0.0413, read-out: LUCIFERASE INFECTION ASSAY - IC50) of over 10000 nM and an IC90 of over 10000 nM.
`Clc1ccccc1-c1nc2ccnc(NCCc3ccccc3)c2[nH]1` was tested, and the IC50 (HEPG2TOX_HILL_SLOPE 0.707, HEPG2TOX_R_SQUARED 0.751, PBLUC_HILL_SLOPE 2.17, PBLUC_R_SQUARED 0.665, read-out: LUCIFERASE INFECTION ASSAY - IC50) was 2900 nM and the IC90 was 7970 nM.
`Cc1nn2c(=O)c(Cc3ccccc3)c(C)[nH]c2c1-c1ccc(F)cc1` showed an IC50 (HEPG2TOX_HILL_SLOPE 0.716, HEPG2TOX_R_SQUARED 0.984, PBLUC_HILL_SLOPE 2.69, PBLUC_R_SQUARED 0.765, read-out: LUCIFERASE INFECTION ASSAY - IC50) of 576 nM and an IC90 of 1300 nM.
`COC(=O)c1c(-c2c(Cl)cccc2Cl)noc1CC=Nc1ccc(C(=O)O)cc1` was tested, and the IC50 (HEPG2TOX_HILL_SLOPE 0.693, HEPG2TOX_R_SQUARED 0.602, read-out: LUCIFERASE INFECTION ASSAY - IC50) was over 7620 nM and the IC90 was over 7620 nM.
For `Cc1sc2nc3n(c(=O)c2c1C)CC/C3=C/c1cccc2ccccc12`, the IC50 (HEPG2TOX_HILL_SLOPE 0.688, HEPG2TOX_R_SQUARED 0.114, PBLUC_HILL_SLOPE 1.25, PBLUC_R_SQUARED 0.514, read-out: LUCIFERASE INFECTION ASSAY - IC50) was 3000 nM and the IC90 was over 10000 nM.
`CSc1sc(C(=O)N/N=C/c2ccccc2Cl)c2c1C(O)CCC2` (centres undefined) showed an IC50 (HEPG2TOX_HILL_SLOPE 0.679, HEPG2TOX_R_SQUARED 0.968, PBLUC_HILL_SLOPE 1.34, PBLUC_R_SQUARED 0.516, read-out: LUCIFERASE INFECTION ASSAY - IC50) of 2100 nM and an IC90 of over 8660 nM.
Compound `Cc1c(Cl)c(=O)[nH]c2ccccc12` has an IC50 (HEPG2TOX_HILL_SLOPE 0.732, HEPG2TOX_R_SQUARED 0.944, PBLUC_HILL_SLOPE 0.944, PBLUC_R_SQUARED 0.141, read-out: LUCIFERASE INFECTION ASSAY - IC50) of over 17000 nM and an IC90 of over 17000 nM.
With `Cc1ccc(S(=O)(=O)N2CCN(C(=O)C3CCN(c4nc5ccccc5o4)CC3)CC2)cc1C` the IC50 (HEPG2TOX_HILL_SLOPE 0.685, HEPG2TOX_R_SQUARED 0.962, PBLUC_HILL_SLOPE 3.7, PBLUC_R_SQUARED 0.71, read-out: LUCIFERASE INFECTION ASSAY - IC50) was 1450 nM and the IC90 was 2620 nM.
In the case of `c1ccc2c(NCc3ccc(N4CCCC4)nc3)ncnc2c1`, the IC50 (HEPG2TOX_HILL_SLOPE 0.683, HEPG2TOX_R_SQUARED 0.958, PBLUC_HILL_SLOPE 1.41, PBLUC_R_SQUARED 0.701, read-out: LUCIFERASE INFECTION ASSAY - IC50) is reported as 668 nM and the IC90 is reported as 3160 nM.
With `COc1ccc(C(=O)N2CCC(Cc3ccccc3)CC2)c(O)c1` the IC50 (HEPG2TOX_HILL_SLOPE 0.725, HEPG2TOX_R_SQUARED 0.627, PBLUC_HILL_SLOPE 3.95, PBLUC_R_SQUARED 0.49, read-out: LUCIFERASE INFECTION ASSAY - IC50) was 7880 nM and the IC90 was over 10000 nM.
With `CN(C)c1nc(N)nc(CN(Cc2nc(N)nc(N(C)C)n2)C23CC4CC(CC(C4)C2)C3)n1` the IC50 (HEPG2TOX_HILL_SLOPE 0.693, HEPG2TOX_R_SQUARED 0.937, PBLUC_HILL_SLOPE 2.94, PBLUC_R_SQUARED 0.84, read-out: LUCIFERASE INFECTION ASSAY - IC50) was 70.7 nM and the IC90 was 149 nM.
`Cc1nc(NCCNc2cnccn2)c2c(-c3cccs3)csc2n1` gave an IC50 (HEPG2TOX_HILL_SLOPE 0.714, HEPG2TOX_R_SQUARED 0.963, PBLUC_HILL_SLOPE 3.5, PBLUC_R_SQUARED 0.488, read-out: LUCIFERASE INFECTION ASSAY - IC50) of 3190 nM and an IC90 of 5980 nM.
`CC(Nc1ncnc2sccc12)c1ccc(-n2cncn2)cc1` (centres undefined) gave an IC50 (HEPG2TOX_HILL_SLOPE 0.68, HEPG2TOX_R_SQUARED 0.808, PBLUC_HILL_SLOPE 0.888, PBLUC_R_SQUARED 0.682, read-out: LUCIFERASE INFECTION ASSAY - IC50) of 1950 nM and an IC90 of over 10000 nM.
`CC(=O)Nc1cccc(-c2ccc3ncc(-c4cccs4)n3n2)c1` showed an IC50 (HEPG2TOX_HILL_SLOPE 0.699, HEPG2TOX_R_SQUARED 0.927, PBLUC_HILL_SLOPE 0.967, PBLUC_R_SQUARED 0.554, read-out: LUCIFERASE INFECTION ASSAY - IC50) of 2810 nM and an IC90 of over 10000 nM.
Work on `COc1cc(-c2cc(-c3cc4ccccc4s3)cnc2N)cc(OC)c1OC` yielded an IC50 (HEPG2TOX_HILL_SLOPE 0.717, HEPG2TOX_R_SQUARED 0.312, PBLUC_HILL_SLOPE 43.5, PBLUC_R_SQUARED 0.0859, read-out: LUCIFERASE INFECTION ASSAY - IC50) of 8370 nM and an IC90 of over 8410 nM.
`COc1cc(-c2cc(-c3ccc(S(C)(=O)=O)cc3)cnc2N)ccc1O` showed an IC50 (HEPG2TOX_HILL_SLOPE 0.691, HEPG2TOX_R_SQUARED 0.303, PBLUC_HILL_SLOPE 2.60E+03, PBLUC_R_SQUARED 0.903, read-out: LUCIFERASE INFECTION ASSAY - IC50) of 1100 nM and an IC90 of 1100 nM.
